Reference: patent US20260001928A1 (CORTERIA PHARMACEUTICALS, priority 2022, published 2026)
*1 amine or outer side, *2 acyl side, *3 side chain or, on linkers, in order; H or OH if unused. Where a SMILES comes first, the peptide text is derived from it. Where no end group is shown, it is not given here. Side-chain parts run from the residue outwards. [ ]: non-standard residue; d: D form. The star is where a group is joined. C18 diacid = O=C(O)CCCCCCCCCCCCCCCCC(=O)*; γGlu = O=C(O)[C@H](CCC(=O)[*:2])N[*:1]; NMeI = CC[C@H](C)[C@H](NC)C(=O)O; Pentanoyl = CCCCC(=O)*; AEEA = NCCOCCOCC(=O)O; Aib = CC(C)(N)C(=O)O

B1: SEQ ID NO 150 (peptide)
peptide: IVLSLD[dV]PIKLK([AEEA-AEEA-γGlu-C18 diacid])QILLKQERQKKQREQAEKNKQILEQV-NH2
modifications: N-terminus assumed
SMILES: CC[C@H](C)[C@H](N)C(=O)N[C@H](C(=O)N[C@@H](CC(C)C)C(=O)N[C@@H](CO)C(=O)N[C@@H](CC(C)C)C(=O)N[C@@H](CC(=O)O)C(=O)N[C@@H](C(=O)N1CCC[C@H]1C(=O)N[C@H](C(=O)N[C@@H](CCCCN)C(=O)N[C@@H](CC(C)C)C(=O)N[C@@H](CCCCNC(=O)COCCOCCNC(=O)COCCOCCNC(=O)CC[C@H](NC(=O)CCCCCCCCCCCCCCCCC(=O)O)C(=O)O)C(=O)N[C@@H](CCC(N)=O)C(=O)N[C@H](C(=O)N[C@@H](CC(C)C)C(=O)N[C@@H](CC(C)C)C(=O)N[C@@H](CCCCN)C(=O)N[C@@H](CCC(N)=O)C(=O)N[C@@H](CCC(=O)O)C(=O)N[C@@H](CCCNC(=N)N)C(=O)N[C@@H](CCC(N)=O)C(=O)N[C@@H](CCCCN)C(=O)N[C@@H](CCCCN)C(=O)N[C@@H](CCC(N)=O)C(=O)N[C@@H](CCCNC(=N)N)C(=O)N[C@@H](CCC(=O)O)C(=O)N[C@@H](CCC(N)=O)C(=O)N[C@@H](C)C(=O)N[C@@H](CCC(=O)O)C(=O)N[C@@H](CCCCN)C(=O)N[C@@H](CC(N)=O)C(=O)N[C@@H](CCCCN)C(=O)N[C@@H](CCC(N)=O)C(=O)N[C@H](C(=O)N[C@@H](CC(C)C)C(=O)N[C@@H](CCC(=O)O)C(=O)N[C@@H](CCC(N)=O)C(=O)N[C@H](C(N)=O)C(C)C)[C@@H](C)CC)[C@@H](C)CC)[C@@H](C)CC)C(C)C)C(C)C

Key:
CFR1R receptor = molecular target: T1, CFR1R receptor (Homo sapiens, UniProt P34998); test: Activity at anti-target CFR1R receptor, cAMP assay in CRF1R-overexpression CHO-K1 cells; type: cell-based; settings: 100% = Sauvagine at 100 nM
T1 construct: host or cells: CHO-K1 (clone 2)
T1 sequence (P34998 24-415): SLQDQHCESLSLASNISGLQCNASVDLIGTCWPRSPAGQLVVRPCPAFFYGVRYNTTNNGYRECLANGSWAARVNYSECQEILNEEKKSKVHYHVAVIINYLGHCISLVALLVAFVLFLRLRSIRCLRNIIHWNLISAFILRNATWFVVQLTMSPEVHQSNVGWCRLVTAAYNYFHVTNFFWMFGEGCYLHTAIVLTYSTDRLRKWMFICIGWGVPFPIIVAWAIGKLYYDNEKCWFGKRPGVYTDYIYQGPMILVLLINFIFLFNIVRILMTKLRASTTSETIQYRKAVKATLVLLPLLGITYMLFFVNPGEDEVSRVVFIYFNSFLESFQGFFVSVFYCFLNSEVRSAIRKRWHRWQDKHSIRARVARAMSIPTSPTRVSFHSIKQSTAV
Method: Assessment of activity at anti-target CFR1R receptor is done using the same procedure as the one described for the TeloHEAC cell line. The CRF1R-overexpression CHO-K1 cell line clone 2 was purchased from PerkinElmer. Cells were grown in a 10 cm dish at 37° C./5% CO2 in medium (F12 (Hams)/10% FBS/400 μg/ml G418) to near confluence. At that stage, cells were harvested, resuspended to 10 million/mL in culture medium without G418 and with 10% DMSO. 1 mL vial aliquots were slowly frozen to −80° C. in isopropanol and then transferred in liquid nitrogen for storage. These vials were used to run the experiment following the procedure reported in the previous paragraph, except for the compound used in the control well to define the 100% activation (Sauvagine at 100 nM) and the cell density (final cell density: 4000 cells/well)

CRF1R receptor = molecular target: T2, CRF1R receptor (UniProt P34998 24-415, limits assumed); test: cell-based or functional assay
T2 sequence (looked up): T1 sequence (P34998 24-415)

Molecule	Emax (% I) (CFR1R receptor)	Emax (% I) (CRF1R receptor)
CCCCC(=O)N[C@H](C(=O)N[C@@H](CC(C)C)C(=O)N[C@@H](CO)C(=O)N[C@@H](CC(C)C)C(=O)N[C@@H](CC(=O)O)C(=O)N[C@@H](C(=O)N1CCC[C@H]1C(=O)N[C@H](C(=O)N[C@@H](CCCCN)C(=O)N[C@@H](CC(C)C)C(=O)N[C@@H](CCCCNC(=O)COCCOCCNC(=O)COCCOCCNC(=O)CC[C@H](NC(=O)CC[C@H](NC(=O)CCCCCCCCCCCCCCCCC(=O)O)C(=O)O)C(=O)O)C(=O)N[C@@H](CCC(N)=O)C(=O)NC(C)(C)C(=O)N[C@@H](CC(C)C)C(=O)N[C@@H](CC(C)C)C(=O)N[C@@H](CCCCN)C(=O)N[C@@H](CCC(N)=O)C(=O)N[C@@H](CCC(=O)O)C(=O)N[C@@H](CCCNC(=N)N)C(=O)N[C@@H](CCC(N)=O)C(=O)N[C@@H](CCCCN)C(=O)N[C@@H](CCCCN)C(=O)N[C@@H](CCC(N)=O)C(=O)N[C@@H](CCCNC(=N)N)C(=O)N[C@@H](CCC(=O)O)C(=O)N[C@@H](CCC(N)=O)C(=O)N[C@@H](C)C(=O)N[C@@H](CCC(=O)O)C(=O)N[C@@H](CCCCN)C(=O)N[C@@H](CC(N)=O)C(=O)N[C@H](C(=O)N[C@@H](CCC(N)=O)C(=O)N[C@H](C(=O)N[C@@H](CC(C)C)C(=O)N[C@@H](CCC(=O)O)C(=O)N[C@@H](CCC(N)=O)C(=O)N[C@H](C(N)=O)C(C)C)[C@@H](C)CC)C(C)C)[C@@H](C)CC)C(C)C)C(C)C [compound 29] (Pentanoyl-VLSLD[dV]PIKLK([AEEA-AEEA-γGlu-γGlu-C18 diacid])Q[Aib]LLKQERQKKQREQAEKNVQILEQV-NH2)	6 % I	–
CC[C@H](C)[C@H](NC(C)=O)C(=O)N[C@H](C(=O)N[C@@H](CC(C)C)C(=O)N[C@@H](CO)C(=O)N[C@@H](CC(C)C)C(=O)N[C@@H](CC(=O)O)C(=O)N[C@@H](C(=O)N1CCC[C@H]1C(=O)N[C@H](C(=O)N[C@@H](CCCCN)C(=O)N[C@@H](CC(C)C)C(=O)N[C@@H](CCCCNC(=O)COCCOCCNC(=O)COCCOCCNC(=O)CC[C@H](NC(=O)CC[C@H](NC(=O)CCCCCCCCCCCCCCCCC(=O)O)C(=O)O)C(=O)O)C(=O)N[C@@H](CCC(N)=O)C(=O)N[C@H](C(=O)N[C@@H](CC(C)C)C(=O)N[C@@H](CC(C)C)C(=O)N[C@@H](CCCCN)C(=O)N[C@@H](CCC(N)=O)C(=O)N[C@@H](CCC(=O)O)C(=O)N[C@@H](CCCNC(=N)N)C(=O)N[C@@H](CCC(N)=O)C(=O)N[C@@H](CCCCN)C(=O)N[C@@H](CCCCN)C(=O)N[C@@H](CCC(N)=O)C(=O)N[C@@H](CCCNC(=N)N)C(=O)N[C@@H](CCC(=O)O)C(=O)N[C@@H](CCC(N)=O)C(=O)N[C@@H](C)C(=O)N[C@@H](CCC(=O)O)C(=O)N[C@@H](CCCCN)C(=O)N[C@@H](CC(N)=O)C(=O)NC(C)(C)C(=O)N[C@@H](CCC(N)=O)C(=O)N[C@H](C(=O)N[C@@H](CC(C)C)C(=O)N[C@@H](CCC(=O)O)C(=O)N[C@@H](CCC(N)=O)C(=O)N[C@H](C(N)=O)C(C)C)[C@@H](C)CC)[C@@H](C)CC)[C@@H](C)CC)C(C)C)C(C)C [compound 30] (Ac-IVLSLD[dV]PIKLK([AEEA-AEEA-γGlu-γGlu-C18 diacid])QILLKQERQKKQREQAEKN[Aib]QILEQV-NH2)	15 % I	–
CC[C@H](C)[C@H](NC)C(=O)N[C@H](C(=O)N[C@@H](CC(C)C)C(=O)N[C@@H](CO)C(=O)N[C@@H](CC(C)C)C(=O)N[C@@H](CC(=O)O)C(=O)N[C@@H](C(=O)N1CCC[C@H]1C(=O)N[C@H](C(=O)N[C@@H](CCCCN)C(=O)N[C@@H](CC(C)C)C(=O)N[C@@H](CCCCNC(=O)COCCOCCNC(=O)COCCOCCNC(=O)CC[C@H](NC(=O)CC[C@H](NC(=O)CCCCCCCCCCCCCCCCC(=O)O)C(=O)O)C(=O)O)C(=O)N[C@@H](CCC(N)=O)C(=O)N[C@H](C(=O)N[C@@H](CC(C)C)C(=O)N[C@@H](CC(C)C)C(=O)N[C@@H](CCCCN)C(=O)N[C@@H](CCC(N)=O)C(=O)N[C@@H](CCC(=O)O)C(=O)N[C@@H](CCCNC(=N)N)C(=O)N[C@@H](CCC(N)=O)C(=O)N[C@@H](CCCCN)C(=O)N[C@@H](CCCCN)C(=O)N[C@@H](CCC(N)=O)C(=O)N[C@@H](CCCNC(=N)N)C(=O)N[C@@H](CCC(=O)O)C(=O)N[C@@H](CCC(N)=O)C(=O)N[C@@H](C)C(=O)N[C@@H](CCC(=O)O)C(=O)N[C@@H](CCCCN)C(=O)N[C@@H](CC(N)=O)C(=O)NC(C)(C)C(=O)N[C@@H](CCC(N)=O)C(=O)N[C@H](C(=O)N[C@@H](CC(C)C)C(=O)N[C@@H](CCC(=O)O)C(=O)N[C@@H](CCC(N)=O)C(=O)N[C@H](C(N)=O)C(C)C)[C@@H](C)CC)[C@@H](C)CC)[C@@H](C)CC)C(C)C)C(C)C [compound 31] (H-[NMeI]VLSLD[dV]PIKLK([AEEA-AEEA-γGlu-γGlu-C18 diacid])QILLKQERQKKQREQAEKN[Aib]QILEQV-NH2)	14 % I	–
CCCCC(=O)N[C@H](C(=O)N[C@@H](CC(C)C)C(=O)N[C@@H](CO)C(=O)N[C@@H](CC(C)C)C(=O)N[C@@H](CC(=O)O)C(=O)N[C@@H](C(=O)N1CCC[C@H]1C(=O)N[C@H](C(=O)N[C@@H](CCCCN)C(=O)N[C@@H](CC(C)C)C(=O)N[C@@H](CCCCNC(=O)COCCOCCNC(=O)COCCOCCNC(=O)CC[C@H](NC(=O)CC[C@H](NC(=O)CCCCCCCCCCCCCCCCC(=O)O)C(=O)O)C(=O)O)C(=O)N[C@@H](CCC(N)=O)C(=O)N[C@H](C(=O)N[C@@H](CC(C)C)C(=O)N[C@@H](CC(C)C)C(=O)N[C@@H](CCCCN)C(=O)N[C@@H](CCC(N)=O)C(=O)N[C@@H](CCC(=O)O)C(=O)N[C@@H](CCCNC(=N)N)C(=O)N[C@@H](CCC(N)=O)C(=O)N[C@@H](CCCCN)C(=O)N[C@@H](CCCCN)C(=O)N[C@@H](CCC(N)=O)C(=O)N[C@@H](CCCNC(=N)N)C(=O)N[C@@H](CCC(=O)O)C(=O)N[C@@H](CCC(N)=O)C(=O)N[C@@H](C)C(=O)N[C@@H](CCC(=O)O)C(=O)N[C@@H](CCCCN)C(=O)N[C@@H](CC(N)=O)C(=O)NC(C)(C)C(=O)N[C@@H](CCC(N)=O)C(=O)N[C@H](C(=O)N[C@@H](CC(C)C)C(=O)N[C@@H](CCC(=O)O)C(=O)N[C@@H](CCC(N)=O)C(=O)N[C@H](C(N)=O)C(C)C)[C@@H](C)CC)[C@@H](C)CC)[C@@H](C)CC)C(C)C)C(C)C [compound 32] (Pentanoyl-VLSLD[dV]PIKLK([AEEA-AEEA-γGlu-γGlu-C18 diacid])QILLKQERQKKQREQAEKN[Aib]QILEQV-NH2)	5 % I	–
B1	–	38%
